Key:
Format in all cases: in vivo, rat
Male Zucker fa/fa rats [1] = experiment: OGTT after 21 days treatment: blood glucose and plasma insulin
Method: The parameters monitored were morning blood glucose and plasma insulin levels. […] An OGTT was performed finally on day 21 to monitor blood glucose and plasma insulin kinetics to assess changes in glucose tolerance. Glibenclamide (DAB 1996; R011150/33372) was donated by Berlin-Chemie (Berlin, Germany). Male Zucker (fa/fa) rats of the body weight class of 300 g were purchased from Charles River (Sulzfeld, Germany). Repeated Dosing: 30 male non-diabetic Wistar and 30 male diabetic Zucker rats were randomized to RP (Reference Product: glibenclamide)-, TP- (jest Product: […] Thereafter, the non-diabetic Wistar rats were treated orally once daily with RP (5 mg/kg b.w.) or TP (21.61 mg/kg b.w.) and the diabetic Zucker rats were treated orally once daily with RP (1 mg/kg b.w.) or TP (21.61 mg/kg b.w.) for 21 days at 05.00 p.m. (before regular food intake in the dark phase). The controls were given 1% cellulose solution orally (5 ml/kg). […] The oral drug therapy was continued for one week. […] OGTT: A final OGTT was performed on day 21 with blood sampling from the tail vein. […] The latter were immediately centrifuged and the plasma fractions were stored at −20 ° C. for insulin analysis. Blood glucose: Glucose levels were measured using the glucose oxidase procedure (Super G Glukosemeβgerät; Dr. Müller Gerätebau, Freital, Germany). Plasma insulin: Insulin concentrations were assayed by the antibody RIA method (LINCO Research, Inc. St. Charles, Mo., USA).

Male Zucker fa/fa rats [2] = experiment: Day-night profile of glycemia and insulinemia, day 16 to day 17 of treatment
Method: The parameters monitored were morning blood glucose and plasma insulin levels. […] An OGTT was performed finally on day 21 to monitor blood glucose and plasma insulin kinetics to assess changes in glucose tolerance. Glibenclamide (DAB 1996; R011150/33372) was donated by Berlin-Chemie (Berlin, Germany). Male Zucker (fa/fa) rats of the body weight class of 300 g were purchased from Charles River (Sulzfeld, Germany). […] Thereafter, the non-diabetic Wistar rats were treated orally once daily with RP (5 mg/kg b.w.) or TP (21.61 mg/kg b.w.) and the diabetic Zucker rats were treated orally once daily with RP (1 mg/kg b.w.) or TP (21.61 mg/kg b.w.) for 21 days at 05.00 p.m. (before regular food intake in the dark phase). The controls were given 1% cellulose solution orally (5 ml/kg). […] The oral drug therapy was continued for one week. […] Blood glucose: Glucose levels were measured using the glucose oxidase procedure (Super G Glukosemeβgerät; Dr. Müller Gerätebau, Freital, Germany). Plasma insulin: Insulin concentrations were assayed by the antibody RIA method (LINCO Research, Inc. St. Charles, Mo., USA).

Male Zucker fa/fa rats [3] = experiment: Repeated once-daily oral dosing: morning blood glucose and plasma insulin
Method: The parameters monitored were morning blood glucose and plasma insulin levels. In a day-night profile, glycemia and insulinaemia were monitored from day 16 to day 17. An OGTT was performed finally on day 21 to monitor blood glucose and plasma insulin kinetics to assess changes in glucose tolerance. Glibenclamide (DAB 1996; R011150/33372) was donated by Berlin-Chemie (Berlin, Germany). Male Zucker (fa/fa) rats of the body weight class of 300 g were purchased from Charles River (Sulzfeld, Germany).
Housing Conditions: Animals were kept single-housed under conventional conditions with controlled temperature (22±2° C.) on a 12/12 hours light/dark cycle (light on at 06:00 a.m.). Standard pellets (ssniff®, Soest, Germany) and tap water acidified with HCl were allowed ad libitum.
Catheterization of Carotid Artery: After one week of adaptation carotid catheters were implanted in the rats under general anesthesia (injection of 0.25 ml/kg i.p. Rompun® [2%], Bayer, Germany) and 0.5 ml/kg i.p. Velonarkon® (Arzneimittelwerk Dresden, Germany). The animals were allowed to recover for one week. The catheter was flushed with heparin-saline (100 IU/ml) three times per week.
Thereafter, the non-diabetic Wistar rats were treated orally once daily with RP (5 mg/kg b.w.) or TP (21.61 mg/kg b.w.) and the diabetic Zucker rats were treated orally once daily with RP (1 mg/kg b.w.) or TP (21.61 mg/kg b.w.) for 21 days at 05.00 p.m. (before regular food intake in the dark phase). The controls were given 1% cellulose solution orally (5 ml/kg). Blood samples were taken every morning at 07.30 a.m. from tail veins for measurement of blood glucose and plasma insulin. The last blood samples of this part of the program were taken at 07.30 a. m. on the 15th day to measure blood glucose and plasma insulin. The oral drug therapy was continued for one week. Recording the day-night profile under the above therapy blood glucose (Δt=3 h) and plasma insulin (Δt=3-6 h) were monitored from day 16 (at 05.00 p.m. beginning) to day 17 (at 02.00 p.m. end).
Blood glucose: Glucose levels were measured using the glucose oxidase procedure (Super G Glukosemeβgerät; Dr. Müller Gerätebau, Freital, Germany).
Plasma insulin: Insulin concentrations were assayed by the antibody RIA method (LINCO Research, Inc. St. Charles, Mo., USA).

COc1ccc(Cl)cc1C(=O)NCCc1ccc(S(=O)(=O)NC(=O)NC2CCCCC2)cc1 [glibenclamide, reference compound]
Glycemia at the last drug application (Male Zucker fa/fa rats [1]; 05.00 p.m., night before day 21): 8.81 ± 1.21 mmol/L
G-AUC in comparison to the placebo application (Male Zucker fa/fa rats [1]; day 21): increased
Blood glucose during OGTT (Male Zucker fa/fa rats [1]; day 21, 50 min): 16.33 ± 0.98 mmol/L
Blood glucose during OGTT (Male Zucker fa/fa rats [1]; day 21, 80 min): 16.24 ± 1.09 mmol/L
Blood glucose during OGTT (Male Zucker fa/fa rats [1]; day 21, 100 min): 15.13 ± 0.76 mmol/L
Blood glucose during OGTT (Male Zucker fa/fa rats [1]; day 21, 120 min): 14.81 ± 0.66 mmol/L
Glycemia after overnight fasting (basal, before OGTT) (Male Zucker fa/fa rats [1]; day 21, morning (07.30 a. m.)): 4.91 ± 0.37 mmol/L
Fasting plasma insulin at the beginning of the OGTT (Male Zucker fa/fa rats [1]; day 21, overnight fasting, listed as RP): ~12.5 ng/mL
Blood glucose increase after the glucose load (Male Zucker fa/fa rats [1]; day 21 OGTT): about 11 mmol
Plasma insulin after a glucose stimulus (Male Zucker fa/fa rats [1]; day 21 OGTT): remained mostly unchanged
Glucose area under the curve (G-AUC0-120 min) (Male Zucker fa/fa rats [1]; day 21 OGTT, CO-group 823±41): 1096 ± 76 mmol·min/L
Mean blood glucose, day-night profile (Male Zucker fa/fa rats [2]; 02.00 p.m. next day, RP 1 mg/kg, TP 21.61 mg/kg orally once daily): 7.34 ± 0.77 mmol/L
Plasma insulin, day-night profile (Male Zucker fa/fa rats [2]; 02.00 p.m. the next day): 58.3 ± 7.3 ng/mL
Plasma insulin, day-night profile (Male Zucker fa/fa rats [2]; 05.00 a.m. (maximum)): 76.3 ± 8.6 ng/mL
Plasma insulin, day-night profile (Male Zucker fa/fa rats [2]; 05.00 p.m., RP 1 mg/kg, TP 21.61 mg/kg orally once daily): 50.0 ± 8.2 ng/mL
Plasma insulin, day-night profile (Male Zucker fa/fa rats [2]; 08.00 p.m.): 57.3 ± 8.2 ng/mL
Mean blood glucose, day-night profile (Male Zucker fa/fa rats [2]; 11.00 a.m., RP 1 mg/kg, TP 21.61 mg/kg orally once daily): 7.66 ± 1.22 mmol/L
Mean blood glucose, day-night profile (Male Zucker fa/fa rats [2]; 11.00 p.m., RP 1 mg/kg, TP 21.61 mg/kg orally once daily): 14.80 ± 1.46 mmol/L
Mean blood glucose, day-night profile (Male Zucker fa/fa rats [2]; day 16, 05.00 p.m. before drug application, RP 1 mg/kg, TP 21.61 mg/kg orally once daily): 7.96 ± 1.13 mmol/L
Increase of insulin output compared to the control (Male Zucker fa/fa rats [2]; obese Zucker rat, subchronic treatment): 27%
Plasma insulin during 14 days in comparison to the control animals (Male Zucker fa/fa rats [3]; rat, in vivo): insulin increase to significantly higher concentrations than in control animals
Increase of morning blood glucose (Male Zucker fa/fa rats [3]; within two days of therapy): about 1.5 mmol/l

From patent US20010051646A1, “Method for the improvement of islet signaling in diabetes mellitus and for its prevention” (priority 2000, published 2001)
